Format in all cases: cell-based
In experiment [1] the test system is NCI-H2170 (HER2 wild type) cells. Kind of experiment: Tumor cell line proliferation assay, NCI-H2170 (HER2 wild type). The settings on record: Homo sapiens, 72 h, CellTiter-Glo, read-out: GI50 NCI H-2170 HER2 wt amp. How it is done:
(§1) For proliferation assays, NCI-H2170 (HER2 wild type), NCI-H2170 HER2 YVMA and EGFR WT dependent A431 cells were used. NCI-H2170 HER2 YVMA or NCI-H2170 cells were seeded into 96-well plates at 750 cells/60 μL in growth media (RPMI ATCC+10% FBS, +Penicillin/Streptomycin). […] Compounds were added by using a HP D3000 Digital Dispenser one day after plating the cells. All treatments were performed in technical triplicates. Treated cells were incubated for 72 h at 37° C. with 5% CO2. CellTiter-Glo® Luminescent Cell Viability Assay (Promega) was performed and chemoluminescence was measured by using the multilabel Plate Reader VICTOR X4. The raw data were imported into and analyzed with the Boehringer Ingelheim proprietary software MegaLab (curve fitting based on the program PRISM, GraphPad Inc.).
Background: ATP-based viability assays read luminescence as a measure of living cells.

The test system of experiment [2] is NCI-H2170 HER2 YVMA cells. Kind of experiment: Tumor cell line proliferation assay, NCI-H2170 HER2 YVMA. Conditions: Homo sapiens, 72 h, CellTiter-Glo, read-out: GI50 NCI H-2170 HER2 YVMA.
Text: Homology-directed genome engineering was employed to insert a 12 nucleotide sequence encoding YVMA into Exon 20 of the genomic HER2 locus in NCI-H2170 cells. […] The DNA template containing the HER2 exon 20 YVMA insertion variant was obtained from GenScript. PCR followed by Sanger sequencing was used to confirm the presence of the 12-nucleotide insertion in HER2 Exon 20 resulting in the YVMA amino acid duplication.
as §1

Experiment [3] has as its system EGFR WT dependent A431 cells. Kind of experiment: Tumor cell line proliferation assay, A431. Conditions: Homo sapiens, A-431, 72 h, CellTiter-Glo, read-out: GI50 A431 EGFR wt amp. As for the experimental part: as §1
The test system of experiment [4] is Ba/F3 cells HER2 mutants (YVMA). Kind of experiment: Ba/F3 proliferation assay, HER2 YVMA. The settings on record: Mus musculus, BaF3, 72 h, CellTiter-Glo. How it is done:
(§2) Plasmids containing HER2 mutants and EGFR WT were obtained from GeneScript. To generate EGFR/HER2-dependent Ba/F3 models, Ba/F3 cells were transduced with retroviruses containing vectors that harbor EGFR WT, HER2 WT or HER2 mutants (YVMA). Platinum-E cells (Cell Biolabs) were used for retrovirus packaging. Retrovirus was added to Ba/F3 cells. To ensure infection, 4 μg/mL polybrene was added and cells were spinfected. Infection efficiency was confirmed by measuring GFP-positive cells using a cell analyzer. Cells with an infection efficiency of 10% to 20% were further cultivated and puromycin selection with 1 μg/mL was initiated. As a control, parental Ba/F3 cells were used to assess the selection status. Selection was considered successful when parental Ba/F3 cells cultures died. To evaluate the transforming potential of HER2 mutations, the growth medium was no longer supplemented with IL-3. Ba/F3 cells harboring the empty vector were used as a control. A switch from IL-3 to EGF was performed for Ba/F3 cells with the EGFR WT known for its dependency on EGF ligand. Approximately ten days before conducting the experiments, puromycin was left out. For proliferation assays (data in table 12 and 14), Ba/F3 cells were seeded into 96-well plates at 5×10^3 cells/100 μL in growth media. Compounds were added by using a HP D3000 Digital Dispenser. All treatments were performed in technical triplicates. Treated cells were incubated for 72 h at 37° C. with 5% CO2. CellTiter-Glo® Luminescent Cell Viability Assay (Promega) was performed and chemoluminescence was measured by using the multilabel Plate Reader VICTOR X4. The raw data were imported into and analyzed with the Boehringer Ingelheim proprietary software MegaLab (curve fitting based on the program PRISM, GraphPad Inc.).

The next experiment deals with Ba/F3 cells EGFR WT. Kind of experiment: Ba/F3 proliferation assay, EGFR WT (EGF dependent). Conditions: Mus musculus, CellTiter-Glo, read-out: GI50 BAF3 EGF dep. How it is done: as §2
The target of the next experiment is T1, HER2 YVMA (Homo sapiens, UniProt P04626, INS775YVMA).
T1 construct: expressed in transfected cells; host or cells: human HEK cells, retroviral transduction, doxycycline-inducible expression
Kind of experiment: pHER2 (ERBB2) YVMA assay (AlphaScreen Surefire, HEK cells). The settings on record: HEK cells expressing HER2 YVMA. How it is done:
(§3) For the assay, HEK HER2 YVMA cells were seeded in MEM medium with 10% FBS. 4 hours prior to compound addition, HER2 YVMA expression was induced using 1 μg/ml Doxycycline. […] Subsequently, 60.000 cells/well in 60 μL were added. Cells were incubated with compounds for 4 h at 37° C. […] The mixture was incubated at a temperature of 20-25° C. with shaking (700 rpm) for 20 min. After centrifugation, 4 μL of the lysate were transferred to Proxiplates. […] Plates were shaken for 1 min (1400 rpm) and incubated for 2 h at a temperature of 20-25° C. in the dark.
The results of the assay are provided as IC50 values.
(In general: In Alpha technology, singlet oxygen from a donor bead excites a nearby acceptor bead.)

A further experiment deals with T2, EGFR wild type (WT) (Homo sapiens, UniProt P00533).
T2 construct: expressed in transfected cells; host or cells: human HEK cells (ATCC CRL-1573), retroviral transduction
Kind of experiment: pEGFR assay (AlphaScreen Surefire, HEK cells). Conditions: HEK cells expressing EGFR WT. As for the experimental part: This assay quantifies the phosphorylation of EGFR at Tyr1068 and was used to measure the inhibitory effect of compounds on the transgenic EGFR wild type (WT) protein expressed in HEK cells.
as §3, with “Transduced cells were selected using puromycin. p-EGFR Tyr1068 was determined using the AlphaScreen Surefire pEGF Receptor (Tyr1068) Assay (PerkinElmer, TGRERS). For” for “For”, “EGFR WT” for “HER2 YVMA”, “FBS.” for “FBS. 4 hours prior to compound addition, HER2 YVMA expression was induced using 1 μg/ml Doxycycline.”, “C.—with” for “C. with”
This cellular phospho-EGFR (pEGFR) compound dose-response assay quantifies the phosphorylation of EGFR at Tyr1068 in HEK cells expressing EGFR WT. The results of the assay are provided as IC50 values.

A further experiment has as its system Ba/F3 cells HER2 WT. Kind of experiment: Ba/F3 proliferation assay, HER2 WT. Conditions: Mus musculus, BaF3, 72 h, CellTiter-Glo. How it is done: as §2
The mark [5] stands for this setting: BaF3, prior art compounds (Table 14), EGF, 72 h.
Setting [6] is: phosphorylation at Tyr1221/1222, 4 h.
Where [7] appears, read: phosphorylation at Tyr1068, 4 h.
Where [8] appears, read: BaF3, EGF instead of IL-3, 72 h.

SMILES strings stand for the structures. Like-named read-outs stand apart in the source and are kept apart here. Some results are limits rather than exact numbers.

Usually GI50 stands for the concentration giving 50% growth inhibition. For orientation: IC50 means the concentration at which inhibition is half-maximal.

T1 sequence (P04626 with tags, fused parts or gaps INS775YVMA): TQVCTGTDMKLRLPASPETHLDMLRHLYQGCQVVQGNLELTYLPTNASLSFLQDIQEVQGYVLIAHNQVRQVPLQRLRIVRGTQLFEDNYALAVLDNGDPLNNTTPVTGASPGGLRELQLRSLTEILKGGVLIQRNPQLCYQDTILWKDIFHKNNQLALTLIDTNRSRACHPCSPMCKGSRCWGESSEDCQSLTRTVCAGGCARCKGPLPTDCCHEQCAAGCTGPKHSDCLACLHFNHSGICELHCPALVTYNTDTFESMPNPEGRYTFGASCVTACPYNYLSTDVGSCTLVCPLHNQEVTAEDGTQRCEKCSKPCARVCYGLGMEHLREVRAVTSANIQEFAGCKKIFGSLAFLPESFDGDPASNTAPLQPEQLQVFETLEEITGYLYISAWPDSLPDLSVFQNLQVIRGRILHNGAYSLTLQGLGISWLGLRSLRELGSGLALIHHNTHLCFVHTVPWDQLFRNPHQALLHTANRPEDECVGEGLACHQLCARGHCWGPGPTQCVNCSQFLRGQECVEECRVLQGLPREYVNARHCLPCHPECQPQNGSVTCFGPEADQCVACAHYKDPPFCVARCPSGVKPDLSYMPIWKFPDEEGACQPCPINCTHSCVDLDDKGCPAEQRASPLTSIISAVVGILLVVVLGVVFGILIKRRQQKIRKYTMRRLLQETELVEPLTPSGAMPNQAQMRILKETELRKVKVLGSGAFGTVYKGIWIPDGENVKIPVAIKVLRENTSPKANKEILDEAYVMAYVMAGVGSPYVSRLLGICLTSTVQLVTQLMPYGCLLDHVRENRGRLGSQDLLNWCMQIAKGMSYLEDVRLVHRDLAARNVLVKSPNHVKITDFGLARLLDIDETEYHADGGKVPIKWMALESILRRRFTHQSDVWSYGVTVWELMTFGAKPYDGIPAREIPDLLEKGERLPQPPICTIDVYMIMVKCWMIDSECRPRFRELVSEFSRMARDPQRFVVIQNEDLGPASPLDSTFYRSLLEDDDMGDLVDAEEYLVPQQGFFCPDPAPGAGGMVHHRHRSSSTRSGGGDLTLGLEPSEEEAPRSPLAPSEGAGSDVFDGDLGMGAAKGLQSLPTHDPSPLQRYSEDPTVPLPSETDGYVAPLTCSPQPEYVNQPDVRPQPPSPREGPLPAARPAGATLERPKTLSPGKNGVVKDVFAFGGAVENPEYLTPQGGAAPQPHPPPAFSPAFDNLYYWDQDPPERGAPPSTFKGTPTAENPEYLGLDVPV
T2 sequence (P00533 25-1210): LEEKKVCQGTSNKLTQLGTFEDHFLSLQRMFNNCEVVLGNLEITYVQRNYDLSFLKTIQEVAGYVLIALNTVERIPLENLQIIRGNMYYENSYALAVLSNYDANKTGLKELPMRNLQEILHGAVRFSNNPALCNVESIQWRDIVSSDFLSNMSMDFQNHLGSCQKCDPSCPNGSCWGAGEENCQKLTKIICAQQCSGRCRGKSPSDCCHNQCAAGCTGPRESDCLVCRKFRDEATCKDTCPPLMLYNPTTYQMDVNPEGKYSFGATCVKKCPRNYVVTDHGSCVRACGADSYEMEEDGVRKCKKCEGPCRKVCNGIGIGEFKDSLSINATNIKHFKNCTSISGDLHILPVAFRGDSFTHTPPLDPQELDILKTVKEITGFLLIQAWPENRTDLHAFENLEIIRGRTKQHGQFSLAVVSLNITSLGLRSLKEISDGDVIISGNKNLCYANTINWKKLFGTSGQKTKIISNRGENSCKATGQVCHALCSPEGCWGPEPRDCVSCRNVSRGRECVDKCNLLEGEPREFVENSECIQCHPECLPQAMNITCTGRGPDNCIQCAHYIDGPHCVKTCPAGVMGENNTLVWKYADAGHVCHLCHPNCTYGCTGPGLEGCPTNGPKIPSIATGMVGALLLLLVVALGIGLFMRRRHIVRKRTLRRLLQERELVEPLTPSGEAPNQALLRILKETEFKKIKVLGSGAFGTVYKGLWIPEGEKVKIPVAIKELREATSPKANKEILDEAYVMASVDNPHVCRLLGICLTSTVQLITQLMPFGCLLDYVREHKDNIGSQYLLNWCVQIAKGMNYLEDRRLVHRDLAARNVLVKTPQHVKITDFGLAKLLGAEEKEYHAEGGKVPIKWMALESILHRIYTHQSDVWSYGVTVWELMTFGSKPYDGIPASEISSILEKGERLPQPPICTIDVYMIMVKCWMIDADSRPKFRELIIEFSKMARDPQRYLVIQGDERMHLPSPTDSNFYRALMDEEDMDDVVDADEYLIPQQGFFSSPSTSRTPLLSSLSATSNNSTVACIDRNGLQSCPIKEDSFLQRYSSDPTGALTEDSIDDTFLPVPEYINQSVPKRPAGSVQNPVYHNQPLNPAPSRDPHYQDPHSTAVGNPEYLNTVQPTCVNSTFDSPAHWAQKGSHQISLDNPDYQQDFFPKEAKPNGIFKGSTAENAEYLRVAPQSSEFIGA

Consider `CCOc1cc2ncc(C#N)c(Nc3ccc(OCc4ccccn4)c(Cl)c3)c2cc1NC(=O)/C=C/CN(C)C` [neratinib, reference compound], for which the GI50 in experiment [1] (prior art compounds (Table 14)) amounted to 0.003 µM; in experiment [2] (prior art compounds (Table 14)) it was 0.037 µM; in experiment [3] (prior art compounds (Table 14)), 0.055 µM; in experiment [4] (prior art compounds (Table 14)), 0.005 µM; in the experiment on Ba/F3 cells EGFR WT (setting [5]), 0.014 µM.

In the case of `C=CC(=O)N1CCN(c2ncc3ncnc(Nc4ccc(Oc5ccn6ncnc6c5)c(C)c4)c3n2)[C@H](C)C1` [Example I-7], the IC50 against HER2 YVMA (setting [6]) amounted to 0.007 µM; against EGFR wild type (WT) (setting [7]), 1.2 µM. Besides, the GI50 is 0.013 µM in experiment [1]; 0.125 µM in experiment [2]; 3.99 µM in experiment [3]; 0.004 µM in the experiment with Ba/F3 cells HER2 WT; 0.029 µM in experiment [4]; greater than 5 µM in the experiment on Ba/F3 cells EGFR WT (setting [8]).

`C=CC(=O)Nc1ccc2ncnc(Nc3ccc(Oc4ccn5ncnc5c4)c(C)c3)c2c1` [WO 2007/059257 Ex. 169, reference compound]: the concentration for half-maximal inhibition (IC50) is 0.081 µM at HER2 YVMA (prior art compounds (Table 13), Tyr1221/1222, 4 h) and 0.355 µM against EGFR wild type (WT) (prior art compounds (Table 13), Tyr1068, 4 h). Further, the 50% growth inhibitory concentration (GI50) in experiment [1] (prior art compounds (Table 14)) was 0.426 µM; in experiment [2] (prior art compounds (Table 14)), 1.43 µM; in experiment [3] (prior art compounds (Table 14)) it was greater than 5 µM; in the experiment with Ba/F3 cells HER2 WT (prior art compounds (Table 14)), 0.04 µM; in experiment [4] (prior art compounds (Table 14)), 0.334 µM; with Ba/F3 cells EGFR WT (setting [5]), 3.56 µM.

Take `C=CC(=O)N1CCN(c2ncc3ncnc(Nc4cc(Cl)c(Oc5ccn6ncnc6c5)c(Cl)c4)c3n2)CC1` [Example I-3]: the IC50 against HER2 YVMA (setting [6]) was 0.01 µM; at EGFR wild type (WT) (setting [7]), 0.371 µM. Also, the GI50 is 0.012 µM in experiment [1]; 0.07 µM in experiment [2]; 3.83 µM in experiment [3]; 0.002 µM in the experiment with Ba/F3 cells HER2 WT; 0.011 µM in experiment [4]; 2.22 µM in the experiment on Ba/F3 cells EGFR WT (setting [8]).

In the case of `C=CC(=O)N1CCN(c2ncc3ncnc(Nc4ccc(Oc5ccn6ncnc6c5)c(C)c4)c3n2)CC1` [Example I-1], the IC50 worked out at 0.003 µM against HER2 YVMA (setting [6]) and 0.153 µM against EGFR wild type (WT) (setting [7]). The concentration for 50% growth inhibition (GI50) in experiment [1] worked out at 0.006 µM; in experiment [2], 0.036 µM; in experiment [3], 2.18 µM; in the experiment with Ba/F3 cells HER2 WT, 0.001 µM; in experiment [4], 0.009 µM; with Ba/F3 cells EGFR WT (setting [8]) it was 1.37 µM.

For `C=CC(=O)N1CCN(c2ncc3ncnc(Nc4ccc(Oc5ccn6ncnc6c5)c(C)c4)c3n2)[C@@H](C)C1` [Example I-8], the IC50 on HER2 YVMA (setting [6]) is 0.006 µM; against EGFR wild type (WT) (setting [7]), 0.577 µM. For the same molecule, the GI50 is 0.014 µM in experiment [1]; 0.091 µM in experiment [2]; 3.79 µM in experiment [3]; 0.003 µM in the experiment on Ba/F3 cells HER2 WT; 0.022 µM in experiment [4]; greater than 5 µM with Ba/F3 cells EGFR WT (setting [8]).

As to `C=CC(=O)N1CCN(c2ncc3ncnc(Nc4ccc(Oc5ccn6ncnc6c5)c(C)c4)c3n2)C[C@H]1C` [Example I-6], the figures for the half-inhibitory concentration (IC50) against HER2 YVMA (setting [6]) and at EGFR wild type (WT) (setting [7]) were 0.006 µM and 0.252 µM, respectively. Moreover, the GI50 in experiment [1] is 0.009 µM; in experiment [2] it was 0.052 µM; in experiment [3], 2.64 µM; in experiment [4], 0.015 µM; in the experiment on Ba/F3 cells EGFR WT (setting [8]) it was 2.65 µM.

In the case of `C=CC(=O)N1CCN(c2ncc3ncnc(Nc4ccc(Oc5ccn6ncnc6c5)c(C)c4)c3n2)C[C@@H]1C` [Example I-5], the half-maximal inhibitory concentration (IC50) on HER2 YVMA (setting [6]) stood at 0.007 µM; against EGFR wild type (WT) (setting [7]), 0.84 µM. Also, the 50% growth inhibitory concentration (GI50) in experiment [1] was 0.012 µM; in experiment [2] it was 0.108 µM; in experiment [3] it was 3.64 µM; in the experiment with Ba/F3 cells HER2 WT it was 0.004 µM; in experiment [4] it was 0.06 µM; in the experiment on Ba/F3 cells EGFR WT (setting [8]), greater than 5 µM.

On to `C=CC(=O)N1CCN(c2ncc3ncnc(Nc4ccc(Oc5ccn6ncnc6c5)c(Cl)c4)c3n2)CC1` [Example I-2], for which the figures for the half-inhibitory concentration (IC50) against HER2 YVMA (setting [6]) and against EGFR wild type (WT) (setting [7]) were 0.002 µM and 0.062 µM, respectively. The 50% growth inhibitory concentration (GI50) in experiment [1] came out at 0.006 µM; in experiment [2], 0.04 µM; in experiment [3] it was 1.57 µM; in the experiment with Ba/F3 cells HER2 WT, 0.001 µM; in experiment [4], 0.006 µM; with Ba/F3 cells EGFR WT (setting [8]) it was 0.67 µM.

As to `C=CC(=O)N1CCN(c2ncc3ncnc(Nc4cc(F)c(Oc5ccn6ncnc6c5)c(Cl)c4)c3n2)CC1` [Example I-4], the concentration for half-maximal inhibition (IC50) on HER2 YVMA (setting [6]) was determined as 0.018 µM; at EGFR wild type (WT) (setting [7]), 0.524 µM. Also, the concentration for 50% growth inhibition (GI50) in experiment [1] was 0.012 µM; in experiment [2], 0.085 µM; in experiment [3], greater than 5 µM; with Ba/F3 cells HER2 WT, 0.002 µM; in experiment [4], 0.02 µM; with Ba/F3 cells EGFR WT (setting [8]) it was 1.01 µM.

(Values after patent US20230131720A1, “[1,3]DIAZINO[5,4-d]PYRIMIDINES AS HER2 INHIBITORS” (Boehringer Ingelheim International GmbH, priority 2020, published 2023).)
